{"source": "paper PMC3925743", "about": "(Journal of controlled release : official journal of the …, 2013)", "origin": "cited, not measured here", "tested_on": "prostate cancer LNCaP cells", "data": [{"substance": "protamine", "values": [{"measurement": "delivery of siRNA into cells", "value": "cannot deliver siRNA"}]}]}
